Reference: ChEMBL document CHEMBL3885881, “DrugMatrix”

Species on record: Rattus norvegicus
Assay: DrugMatrix - Regimen: Daily Repeat
Type: toxicity, organism-based, Sprague-Dawley
Parameters: regimen Daily Repeat, gender Male, age 6-8 weeks
Settings: in vivo, po, 100 mg/kg, route oral GAVAGE, […]; for ABSOLUTE BASOPHIL / ABSOLUTE EOSINOPHIL / ABSOLUTE LYMPHOCYTE / ABSOLUTE MONOCYTE / ABSOLUTE SEGMENTED NEUTROPHIL / BASOPHIL / EOSINOPHIL / ERYTHROCYTE COUNT / HEMATOCRIT / HEMOGLOBIN / LEUKOCYTE COUNT / LYMPHOCYTE / MEAN CORPUSCULAR HEMOGLOBIN / MEAN CORPUSCULAR HEMOGLOBIN CONCENTRATION / MEAN CORPUSCULAR VOLUME / MONOCYTE / NEUTROPHIL / NUCLEATED RED BLOOD CELLS / PLATELET COUNT: tissue Blood; for ALANINE AMINOTRANSFERASE / ALBUMIN / ALKALINE PHOSPHATASE / ASPARTATE AMINOTRANSFERASE / BLOOD UREA NITROGEN / CARBON DIOXIDE / CHLORIDE / CHOLESTEROL / CREATINE PHOSPHOKINASE / CREATININE / GLUCOSE / LACTATE DEHYDROGENASE / LIPASE / PHOSPHORUS / POTASSIUM / SODIUM / TOTAL BILIRUBIN / TOTAL PROTEIN / URIC ACID: tissue Plasma
[1] = 72 h, dose level Low, time 3 day
[2] = 120 h, dose level High, time 5 day

CC(C)(Oc1ccc(CCNC(=O)c2ccc(Cl)cc2)cc1)C(=O)O [BEZAFIBRATE]
ABSOLUTE BASOPHIL [1]: 0 CELLS/uL
ABSOLUTE EOSINOPHIL [1]: 180.5 CELLS/uL
ABSOLUTE LYMPHOCYTE [1]: 13739.67 CELLS/uL
ABSOLUTE MONOCYTE [1]: 378 CELLS/uL
ABSOLUTE SEGMENTED NEUTROPHIL [1]: 1401.83 CELLS/uL
BASOPHIL [1]: 0%
EOSINOPHIL [1]: 1.17%
ERYTHROCYTE COUNT [1]: 5.45 x10E6/uL
HEMATOCRIT [1]: 33.9%
HEMOGLOBIN [1]: 13.37 G/DL
LEUKOCYTE COUNT [1]: 15.7 x10E3/uL
LYMPHOCYTE [1]: 87.33%
MEAN CORPUSCULAR HEMOGLOBIN [1]: 24.55 pg
MEAN CORPUSCULAR HEMOGLOBIN CONCENTRATION [1]: 39.42 G/DL
MEAN CORPUSCULAR VOLUME [1]: 62.22 fL
MONOCYTE [1]: 2.33%
NEUTROPHIL [1]: 9.17%
NUCLEATED RED BLOOD CELLS [1]: 0 /100WBC
PLATELET COUNT [1]: 1134.83 x10E3/uL
ALANINE AMINOTRANSFERASE [1]: 55.83 u/L
ALBUMIN [1]: 4.3 G/DL
ALKALINE PHOSPHATASE [1]: 373.17 u/L
ASPARTATE AMINOTRANSFERASE [1]: 81 u/L
BLOOD UREA NITROGEN [1]: 13.33 mg/dL
CARBON DIOXIDE [1]: 28.33 mmol/L
CHLORIDE [1]: 103.17 MEQ/L
CHOLESTEROL [1]: 50.33 mg/dL
CREATINE PHOSPHOKINASE [1]: 275.67 u/L
CREATININE [1]: 0.14 mg/dL
GLUCOSE [1]: 153.33 mg/dL
LACTATE DEHYDROGENASE [1]: 111.33 u/L
LIPASE [1]: 9.67 u/L
PHOSPHORUS [1]: 10.52 mg/dL
POTASSIUM [1]: 6.12 MEQ/L
SODIUM [1]: 143.38 MEQ/L
TOTAL BILIRUBIN [1]: 0.17 mg/dL
TOTAL PROTEIN [1]: 5.68 G/DL
URIC ACID [1]: 1.27 mg/dL
BASOPHIL [2]: 0.3%
EOSINOPHIL [2]: 0.42%
ERYTHROCYTE COUNT [2]: 6.75 x10E6/uL
HEMATOCRIT [2]: 45.06%
HEMOGLOBIN [2]: 14.3 G/DL
LEUKOCYTE COUNT [2]: 9.46 x10E3/uL
LYMPHOCYTE [2]: 82.9%
MEAN CORPUSCULAR HEMOGLOBIN [2]: 21.18 pg
MEAN CORPUSCULAR HEMOGLOBIN CONCENTRATION [2]: 31.76 G/DL
MEAN CORPUSCULAR VOLUME [2]: 66.76 fL
MONOCYTE [2]: 2.08%
NEUTROPHIL [2]: 12.9%
PLATELET COUNT [2]: 1359.2 x10E3/uL
ALANINE AMINOTRANSFERASE [2]: 30.4 u/L
ALBUMIN [2]: 3.86 G/DL
ALKALINE PHOSPHATASE [2]: 393.2 u/L
ASPARTATE AMINOTRANSFERASE [2]: 76.8 u/L
BLOOD UREA NITROGEN [2]: 8 mg/dL
CHLORIDE [2]: 110.2 MEQ/L
CHOLESTEROL [2]: 53.8 mg/dL
CREATINE PHOSPHOKINASE [2]: 309.2 u/L
CREATININE [2]: 0.58 mg/dL
GLUCOSE [2]: 111.8 mg/dL
PHOSPHORUS [2]: 13.26 mg/dL
POTASSIUM [2]: 5.98 MEQ/L
SODIUM [2]: 150.8 MEQ/L
TOTAL BILIRUBIN [2]: 0.2 mg/dL
TOTAL PROTEIN [2]: 5.94 G/DL
BASOPHIL (dose level High, time 28 day): 0.53%
EOSINOPHIL (dose level High, time 28 day): 0.56%
ERYTHROCYTE COUNT (dose level High, time 28 day): 7.67 x10E6/uL
HEMATOCRIT (dose level High, time 28 day): 46.81%
HEMOGLOBIN (dose level High, time 28 day): 15.51 G/DL
LEUKOCYTE COUNT (dose level High, time 28 day): 10.2 x10E3/uL
LYMPHOCYTE (dose level High, time 28 day): 83.76%
MEAN CORPUSCULAR HEMOGLOBIN (dose level High, time 28 day): 20.22 pg
MEAN CORPUSCULAR HEMOGLOBIN CONCENTRATION (dose level High, time 28 day): 33.13 G/DL
MEAN CORPUSCULAR VOLUME (dose level High, time 28 day): 61.05 fL
MONOCYTE (dose level High, time 28 day): 1.65%
NEUTROPHIL (dose level High, time 28 day): 12.36%
PLATELET COUNT (dose level High, time 28 day): 1339.5 x10E3/uL
ABSOLUTE BASOPHIL (dose level Low, time 7 day): 0 CELLS/uL
ABSOLUTE EOSINOPHIL (dose level Low, time 7 day): 36.5 CELLS/uL
ABSOLUTE LYMPHOCYTE (dose level Low, time 7 day): 7716 CELLS/uL
ABSOLUTE MONOCYTE (dose level Low, time 7 day): 109.33 CELLS/uL
ABSOLUTE SEGMENTED NEUTROPHIL (dose level Low, time 7 day): 821.5 CELLS/uL
BASOPHIL (dose level Low, time 7 day): 0%
EOSINOPHIL (dose level Low, time 7 day): 0.5%
ERYTHROCYTE COUNT (dose level Low, time 7 day): 5.31 x10E6/uL
HEMATOCRIT (dose level Low, time 7 day): 33.28%
HEMOGLOBIN (dose level Low, time 7 day): 13.1 G/DL
LEUKOCYTE COUNT (dose level Low, time 7 day): 8.68 x10E3/uL
LYMPHOCYTE (dose level Low, time 7 day): 88.67%
MEAN CORPUSCULAR HEMOGLOBIN (dose level Low, time 7 day): 24.67 pg
MEAN CORPUSCULAR HEMOGLOBIN CONCENTRATION (dose level Low, time 7 day): 39.37 G/DL
MEAN CORPUSCULAR VOLUME (dose level Low, time 7 day): 62.68 fL
MONOCYTE (dose level Low, time 7 day): 1.33%
NEUTROPHIL (dose level Low, time 7 day): 9.5%
NUCLEATED RED BLOOD CELLS (dose level Low, time 7 day): 0 /100WBC
PLATELET COUNT (dose level Low, time 7 day): 1167.33 x10E3/uL
ALANINE AMINOTRANSFERASE (dose level High, time 28 day): 33.6 u/L
ALBUMIN (dose level High, time 28 day): 4.04 G/DL
ALKALINE PHOSPHATASE (dose level High, time 28 day): 358.2 u/L
ASPARTATE AMINOTRANSFERASE (dose level High, time 28 day): 65.4 u/L
BLOOD UREA NITROGEN (dose level High, time 28 day): 15.6 mg/dL
CHLORIDE (dose level High, time 28 day): 108.6 MEQ/L
CHOLESTEROL (dose level High, time 28 day): 43.2 mg/dL
CREATINE PHOSPHOKINASE (dose level High, time 28 day): 130.9 u/L
CREATININE (dose level High, time 28 day): 0.51 mg/dL
GLUCOSE (dose level High, time 28 day): 147.9 mg/dL
PHOSPHORUS (dose level High, time 28 day): 11.62 mg/dL
POTASSIUM (dose level High, time 28 day): 6.83 MEQ/L
SODIUM (dose level High, time 28 day): 152.6 MEQ/L
TOTAL BILIRUBIN (dose level High, time 28 day): 0.2 mg/dL
TOTAL PROTEIN (dose level High, time 28 day): 6.41 G/DL
ALANINE AMINOTRANSFERASE (dose level Low, time 7 day): 52.17 u/L
ALBUMIN (dose level Low, time 7 day): 4.67 G/DL
ALKALINE PHOSPHATASE (dose level Low, time 7 day): 346.67 u/L
ASPARTATE AMINOTRANSFERASE (dose level Low, time 7 day): 68.17 u/L
BLOOD UREA NITROGEN (dose level Low, time 7 day): 17.67 mg/dL
CARBON DIOXIDE (dose level Low, time 7 day): 30.83 mmol/L
CHLORIDE (dose level Low, time 7 day): 102.83 MEQ/L
CHOLESTEROL (dose level Low, time 7 day): 57.83 mg/dL
CREATINE PHOSPHOKINASE (dose level Low, time 7 day): 307.17 u/L
CREATININE (dose level Low, time 7 day): 0.24 mg/dL
GLUCOSE (dose level Low, time 7 day): 145.67 mg/dL
LACTATE DEHYDROGENASE (dose level Low, time 7 day): 85.5 u/L
LIPASE (dose level Low, time 7 day): 9.33 u/L
PHOSPHORUS (dose level Low, time 7 day): 11.1 mg/dL
POTASSIUM (dose level Low, time 7 day): 5.85 MEQ/L
SODIUM (dose level Low, time 7 day): 143.98 MEQ/L
TOTAL BILIRUBIN (dose level Low, time 7 day): 0.1 mg/dL
TOTAL PROTEIN (dose level Low, time 7 day): 6.2 G/DL
URIC ACID (dose level Low, time 7 day): 0.62 mg/dL
